Read-outs that look alike come from different tables or passages of the source.
Legend:
[1] = system: cancer-associated phosphoprotein; assay: ELISA assay of purified 60K plasma protein fraction from rats exposed to test compound; type: in vivo, rat (Sprague-Dawley strain)
Description: This example illustrates a process of the present invention in which the assay for the cancer-associated phosphoprotein is effected by means of an ELISA test.
Samples of the purified 60K protein fraction from the Sepharose CL-6B column used in Example 1 above were subjected to an ELISA assay. […] Also subjected to the same ELISA assay were purified protein fractions from the control rats and from a rat suffering from a hepatoma 7777 tumor.
The ELISA assay was conducted in the following manner. A sample of the cancer-associated phosphoprotein prepared in the manner described in Example 1 of the aforementioned parent application Ser. No. 554,439 was bound to a well in a plastic tray, and the well thereafter washed thoroughly. A polyclonal rabbit antibody serum prepared as described in Example 2 of the aforementioned parent application Ser. No. 554,439 was then mixed with the protein sample to be assayed and the resultant mixture incubated at 37° C. for 30 minutes. The mixture was then added to the well containing the cancer-associated phosphoprotein, and the tray incubated for one hour at 37° C., then washed thoroughly. Following this washing, there was added to the well a goat anti-rabbit IgG antibody serum conjugated to horseradish peroxidase enzyme, and the tray was incubated for one hour at 37° C. then washed thoroughly. The substrate for the horseradish peroxidase enzyme, namely 2,2-azino-di(3-ethylbenzthiazoline sulfonic acid) was added to the well and the tray incubated to 15 minutes at room temperature. The color development was then stopped by addition of a 2 mM solution of sodium azide and the intensity of the color in the wells determined using a spectrophotometer at […].
To determine the maximum possible optical density, a control test was run in which the test sample was replaced with a buffer containing no cancer-associated phosphoprotein; this optical density represents the maximum possible reaction of uninhibited antibody binding to the bound cancer-associated phosphoprotein. […] The optical density of a well containing as a control sample an equivalent fraction of normal rat plasma free of cancer-associated phosphoprotein is designated 0% inhibition; the optical density of this control sample should be close to that of the sample using the buffer solution The samples tested for the presence of the cancer-associated phosphoprotein are designated positive when the optical density exceeds that of the control value by two standard deviations. The concentration of cancer-associated phosphoprotein is directly related to the percentage inhibition and can be compared to that of the standard solution of the cancer-associated phosphoprotein.

[2] = system: cancer-associated phosphoprotein; conditions: for induction of the cancer-associated phosphoprotein in the plasma: rat plasma, result in words
rat = conditions: cited from earlier work
transformed cells = conditions: some types of transformed cells; cited from earlier work
[3] = system: cancer-associated phosphoprotein; type: in vivo, rat; conditions: acute or chronic treatment of rats
From the text: Further experiments indicate that release of the cancer-associated phosphoprotein into the plasma was not induced upon induction of liver regeneration in the rat by partial hepatectomy, nor by acute or chronic treatment of the rats with the non-carcinogenic tumor promoter phenobarbital.

[4] = ELISA inhibition, plasma fraction of treated rat, standard phosphoprotein solution = 100%, normal rat plasma fraction = 0%
[5] = 200 micromoles/kg, intraperitoneal, plasma ~21 days after exposure, control subtracted
[6] = 160 micromoles/kg, intraperitoneal, plasma ~21 days after exposure, control subtracted
[7] = 210 micromoles/kg, intraperitoneal, plasma ~21 days after exposure, control subtracted
[8] = 600 micromoles/kg, intraperitoneal, plasma ~21 days after exposure, control subtracted
[9] = 1 millimole/kg, intraperitoneal, plasma ~21 days after exposure, control subtracted

CNNC [1,2-dimethylhydrazine]
Percentage Inhibition [1, 4]: 79%
RNA-releasing Activity ([2]; 560 micromoles/kg, intraperitoneal, plasma ~21 days after exposure, control subtracted): 5.71 percent nuclear counts per min

O=[N+]([O-])c1ccc2ccc3cccc4ccc1c2c34 [1-Nitropyrene]
Percentage Inhibition [1, 4]: 74%
RNA-releasing Activity ([2]; 105 micromoles/kg, intraperitoneal, plasma ~21 days after exposure, control subtracted): 5.30 percent nuclear counts per min

Clc1cc2c(cc1Cl)Oc1cc(Cl)c(Cl)cc1O2 [2,3,7,8-Tetrachlorodibenzo-p-dioxine]
toxicity in the rat (rat): very potent toxins in the rat
RNA-releasing Activity ([2]; 0.125 micromoles/kg, intraperitoneal, plasma ~21 days after exposure, control subtracted): 0.00 percent nuclear counts per min
induction of the cancer-associated phosphoprotein in the plasma [2]: do not induce significant quantities of the cancer-associated phosphoprotein

CC(=O)Nc1ccc2c(c1)Cc1ccccc1-2 [2-Acetylaminofluorene]
Percentage Inhibition [1, 4]: 87%
RNA-releasing Activity [2, 5]: 5.11 percent nuclear counts per min

Cc1c(F)ccc2ccc3cc4ccccc4c(C)c3c12 [2-Fluoro-1,12-dimethylbenz[a]anthracene]
RNA-releasing Activity [2, 6]: 0.10 percent nuclear counts per min

Nc1ccc2ccccc2c1 [2-Naphthylamine]
RNA-releasing Activity ([2]; 500 micromoles/kg, intraperitoneal, plasma ~21 days after exposure, control subtracted): 3.29 percent nuclear counts per min

Cc1ccc2cc3c(ccc4ccccc43)c3c2c1CC3 [3-Methylcholanthrene]
RNA-releasing Activity [2, 6]: 5.62 percent nuclear counts per min

Cc1c2ccccc2c(C)c2c1ccc1ccccc12 [7,12-Dimethylbenz[a]anthracene]
RNA-releasing Activity [2, 6]: 6.42 percent nuclear counts per min

c1ccc2nc3ccccc3cc2c1 [Acridine]
Percentage Inhibition [1, 4]: 2%
RNA-releasing Activity ([2]; 15 micromoles/kg, intraperitoneal, plasma ~21 days after exposure, control subtracted): 0.00 percent nuclear counts per min

COc1cc2c(c3oc(=O)c4c(c13)CCC4=O)[C@@H]1C=CO[C@@H]1O2 [Aflatoxin B1]
RNA-releasing Activity ([2]; rat, in vivo): 4.37

COc1cc2c(c3oc(=O)c4c(c13)CCOC4=O)[C@@H]1CCO[C@@H]1O2 [Aflatoxin G2]
RNA-releasing Activity ([2]; rat, in vivo, ip): 3.80

c1ccc2cc3ccccc3cc2c1 [Anthracene]
RNA-releasing Activity [2, 6]: 0.17 percent nuclear counts per min

c1ccc2cc3c(ccc4ccccc43)cc2c1 [Benz[a]anthracene]
RNA-releasing Activity [2, 6]: 4.92 percent nuclear counts per min

c1ccc2c(c1)cc1ccc3cccc4ccc2c1c34 [Benzo[a]pyrene]
RNA-releasing Activity [2, 7]: 7.73 percent nuclear counts per min

c1ccc2c(c1)c1cccc3ccc4cccc2c4c31 [Benzo[e]pyrene]
RNA-releasing Activity [2, 7]: 3.37 percent nuclear counts per min

Cn1c(=O)c2c(ncn2C)n(C)c1=O [Caffeine]
Percentage Inhibition ([1]; rat, in vivo): 14
RNA-releasing Activity ([2]; rat, in vivo, ip): 0.07

ClC(Cl)(Cl)Cl [Carbon tetrachloride, carbon tetrachloride]
Percentage Inhibition ([1]; ELISA inhibition, plasma fraction of treated rat, standard phosphoprotein solution = 100%, normal rat plasma fraction = 0%, listed as Carbon tetrachloride-1): 1%
Percentage Inhibition ([1]; ELISA inhibition, plasma fraction of treated rat, standard phosphoprotein solution = 100%, normal rat plasma fraction = 0%, listed as Carbon tetrachloride-2): 10%

CN(C)C=O [Dimethylformamide]
ability to induce differentiation of transformed cells (transformed cells): reversably induce the differentiation of some types of transformed cells
RNA-releasing Activity [2, 5]: 1.30 percent nuclear counts per min
induction of the cancer-associated phosphoprotein in the plasma [2]: induced significant quantities

CCOC(N)=O [Ethyl carbamate (urethane), Ethyl carbamate]
RNA-releasing Activity ([2]; 11.2 millimoles/kg, intraperitoneal, plasma ~21 days after exposure, control subtracted): 3.80 percent nuclear counts per min

c1ccc2c(c1)Cc1ccccc1-2 [Fluorene]
RNA-releasing Activity [2, 6]: 0.14 percent nuclear counts per min

CCN(N=O)C(N)=O [N--Ethyl-N--nitrosourea]
RNA-releasing Activity [2, 8]: 4.50 percent nuclear counts per min

CN(N=O)C(N)=O [N--Methyl-N--nitrosourea]
RNA-releasing Activity ([2]; 440 micromoles/kg, intraperitoneal, plasma ~21 days after exposure, control subtracted): 4.69 percent nuclear counts per min

CCCCN(CCCC)N=O [N--Nitroso-N,N--dibutylamine]
Percentage Inhibition [1, 4]: 75%
RNA-releasing Activity ([2]; 760 micromoles/kg, intraperitoneal, plasma ~21 days after exposure, control subtracted): 5.44 percent nuclear counts per min

CCN(CC)N=O [N--Nitroso-N,N--diethylamine]
RNA-releasing Activity [2, 9]: 4.21 percent nuclear counts per min

CN(C)N=O [N--Nitroso-N,N--dimethylamine]
RNA-releasing Activity ([2]; 135 micromoles/kg, intraperitoneal, plasma ~21 days after exposure, control subtracted): 3.40 percent nuclear counts per min

c1ccc2ccccc2c1 [Naphthalene]
Percentage Inhibition [1, 4]: 18%
RNA-releasing Activity [2, 9]: 0.12 percent nuclear counts per min

O=C(O)C(F)(F)C(F)(F)C(F)(F)C(F)(F)C(F)(F)C(F)(F)C(F)(F)C(F)(F)C(F)(F)F [Nonadecafluorodecanoic acid]
toxicity in the rat (rat): very potent toxins in the rat
RNA-releasing Activity ([2]; 50 micromoles/kg, intraperitoneal, plasma ~21 days after exposure, control subtracted): 0.00 percent nuclear counts per min
induction of the cancer-associated phosphoprotein in the plasma [2]: do not induce significant quantities of the cancer-associated phosphoprotein

CCC1(c2ccccc2)C(=O)NC(=O)NC1=O [Phenobarbital]
release of the cancer-associated phosphoprotein into the plasma [3]: not induced
RNA-releasing Activity ([2]; 80 micromoles/kg, intraperitoneal, plasma ~21 days after exposure, control subtracted): 0.08 percent nuclear counts per min

c1cc2ccc3cccc4ccc(c1)c2c34 [Pyrene]
RNA-releasing Activity [2, 6]: 0.05 percent nuclear counts per min

Cc1cc2nc3c(=O)[nH]c(=O)nc-3n(C[C@H](O)[C@H](O)[C@H](O)CO)c2cc1C [Riboflavin]
Percentage Inhibition [1, 4]: 11%
RNA-releasing Activity ([2]; 265 micromoles/kg, intraperitoneal, plasma ~21 days after exposure, control subtracted): 0.01 percent nuclear counts per min

C=CCc1ccc2c(c1)OCO2 [Safrole]
Percentage Inhibition [1, 4]: 80%
RNA-releasing Activity [2, 8]: 5.90 percent nuclear counts per min

— patent US4871661A, “Process for testing the carcinogenicity of a material or the presence of cancer-inducing factors in an environment” (priority 1985, dated 1989)
